Here are results for 25 molecules from ChEMBL document CHEMBL1137144, “Synthesis and biological evaluation of novel 4"-alkoxy avermectin derivatives” (2004).

The test system of one assay is Caenorhabditis elegans. The experiment in a line: Minimum inhibitory concentration for growth inhibition of Caenorhabditis elegans (free living nematode) in a microplate assay. The class given is functional.
For a further assay, the system named is Artemia salina. The experiment in a line: Minimum inhibitory concentration for growth inhibition of Artemia salina(brine shrimp) in a microplate assay. The class given is functional.

Molecules are shown by their SMILES. ≈ marks a conversion by molar mass, not a printed value.

With `CCC(C)[C@H]1O[C@]2(C=C[C@@H]1C)C[C@@H]1C[C@@H](C/C=C(\C)[C@@H](O[C@H]3C[C@H](OC)[C@@H](OCC(=O)O)[C@H](C)O3)[C@@H](C)/C=C/C=C3\CO[C@@H]4[C@H](O)C(C)=CC(C(=O)O1)C34O)O2` (stereo not given in full), the values for the MIC in the assay on Caenorhabditis elegans and in the assay on Artemia salina were 10 ng/mL (≈ 12.7 nM) and 2 ng/mL (≈ 2.54 nM), respectively.

Turning to `CCC(C)[C@H]1O[C@]2(C=C[C@@H]1C)C[C@@H]1C[C@@H](C/C=C(\C)C(O[C@H]3C[C@H](OC)C(O[C@H]4C[C@H](OC)[C@@H](OCCN)[C@H](C)O4)[C@H](C)O3)[C@@H](C)/C=C/C=C3\CO[C@@H]4[C@H](O)C(C)=CC(C(=O)O1)C34O)O2` (stereo not given in full), the MIC in the assay with Caenorhabditis elegans is 50 ng/mL (≈ 54.6 nM); in the assay with Artemia salina, 10 ng/mL (≈ 10.9 nM).

In the case of `CCC(C)[C@H]1O[C@]2(C=C[C@@H]1C)C[C@@H]1C[C@@H](C/C=C(\C)C(O[C@H]3C[C@H](OC)C(O[C@H]4C[C@H](OC)[C@@H](OC/C=N/O)[C@H](C)O4)[C@H](C)O3)[C@@H](C)/C=C/C=C3\CO[C@@H]4[C@H](O)C(C)=CC(C(=O)O1)C34O)O2` (stereo not given in full), the MIC against Caenorhabditis elegans and against Artemia salina was 2 ng/mL (≈ 2.15 nM) in each case.

Regarding `CCOC(=O)CO[C@H]1[C@H](C)OC(O[C@H]2[C@H](C)O[C@@H](OC3/C(C)=C/C[C@@H]4C[C@@H](C[C@]5(C=C[C@H](C)[C@@H](C(C)CC)O5)O4)OC(=O)[C@@H]4C=C(C)[C@@H](O)[C@H]5OC/C(=C\C=C\[C@@H]3C)[C@]54O)C[C@@H]2OC)C[C@@H]1OC` (stereo not given in full), the values for the minimal inhibitory concentration (MIC) in the assay on Caenorhabditis elegans and with Artemia salina were 2 ng/mL (≈ 2.09 nM) and 0.5 ng/mL (≈ 0.521 nM), respectively.

Regarding `CCC(C)[C@H]1O[C@]2(C=C[C@@H]1C)C[C@@H]1C[C@@H](C/C=C(\C)C(O[C@H]3C[C@H](OC)C(O[C@H]4C[C@H](OC)[C@@H](OC/C=N/OC)[C@H](C)O4)[C@H](C)O3)[C@@H](C)/C=C/C=C3\CO[C@@H]4[C@H](O)C(C)=CC(C(=O)O1)C34O)O2` (stereo not given in full), the results for the MIC in the assay with Caenorhabditis elegans and against Artemia salina were 2 ng/mL (≈ 2.12 nM) and 0.5 ng/mL (≈ 0.53 nM), respectively.

For the molecule `CC[C@H](C)[C@H]1O[C@]2(C=C[C@@H]1C)C[C@@H]1C[C@@H](C/C=C(\C)[C@@H](O[C@H]3C[C@H](OC)[C@@H](O[C@H]4C[C@H](OC)[C@@H](O)[C@H](C)O4)[C@H](C)O3)[C@@H](C)/C=C/C=C3\CO[C@@H]4[C@H](O)C(C)=C[C@@H](C(=O)O1)[C@]34O)O2` [ABAMECTIN COMPONENT B1A], the MIC came to 2 ng/mL (≈ 2.29 nM) against Caenorhabditis elegans and 0.5 ng/mL (≈ 0.573 nM) in the assay with Artemia salina.

Consider `CCC(C)[C@H]1O[C@]2(C=C[C@@H]1C)C[C@@H]1C[C@@H](C/C=C(\C)C(O[C@H]3C[C@H](OC)C(O[C@H]4C[C@H](OC)[C@@H](OCCN5CCOCC5)[C@H](C)O4)[C@H](C)O3)[C@@H](C)/C=C/C=C3\CO[C@@H]4[C@H](O)C(C)=CC(C(=O)O1)C34O)O2` (stereo not given in full), for which the MIC in the assay with Caenorhabditis elegans was found to be 10 ng/mL (≈ 10.1 nM); against Artemia salina, 2 ng/mL (≈ 2.03 nM).

Consider `CCC(C)[C@H]1O[C@]2(C=C[C@@H]1C)C[C@@H]1C[C@@H](C/C=C(\C)C(O[C@H]3C[C@H](OC)C(O[C@H]4C[C@H](OC)[C@@H](OCCNC(C)=O)[C@H](C)O4)[C@H](C)O3)[C@@H](C)/C=C/C=C3\CO[C@@H]4[C@H](O)C(C)=CC(C(=O)O1)C34O)O2` (stereo not given in full), for which the MIC in the assay on Caenorhabditis elegans and against Artemia salina was 10 ng/mL (≈ 10.4 nM) each time.

Regarding `CCOC(=O)CO[C@H]1[C@H](C)O[C@@H](OC2[C@H](C)O[C@@H](OC3/C(C)=C/C[C@@H]4C[C@@H](C[C@]5(CC[C@H](C)[C@@H](C(C)CC)O5)O4)OC(=O)C4C=C(C)[C@@H](O)[C@H]5OC/C(=C\C=C\[C@@H]3C)C45O)C[C@@H]2OC)C[C@@H]1OC` (stereo not given in full), the MIC in the assay with Caenorhabditis elegans stood at 2 ng/mL (≈ 2.08 nM); against Artemia salina, 0.5 ng/mL (≈ 0.52 nM).

With `CCC(C)[C@H]1O[C@]2(CC[C@@H]1C)C[C@@H]1C[C@@H](C/C=C(\C)[C@@H](OC3C[C@H](OC)[C@@H](OC4C[C@H](OC)[C@@H](O)[C@H](C)O4)[C@H](C)O3)[C@@H](C)/C=C/C=C3\CO[C@@H]4[C@H](O)C(C)=C[C@@H](C(=O)O1)[C@]34O)O2` (stereo not given in full), the MIC in the assay on Caenorhabditis elegans and in the assay with Artemia salina was 2 ng/mL (≈ 2.29 nM) throughout.

Take `CCC(C)[C@H]1O[C@]2(C=C[C@@H]1C)C[C@@H]1C[C@@H](C/C=C(\C)C(O[C@H]3C[C@H](OC)C(O[C@H]4C[C@H](OC)[C@@H](OCCN5CCNCC5)[C@H](C)O4)[C@H](C)O3)[C@@H](C)/C=C/C=C3\CO[C@@H]4[C@H](O)C(C)=CC(C(=O)O1)C34O)O2` (stereo not given in full): the MIC against Caenorhabditis elegans was found to be 50 ng/mL (≈ 50.7 nM); in the assay with Artemia salina, 10 ng/mL (≈ 10.1 nM).

Take `CCC(C)[C@H]1O[C@]2(C=C[C@@H]1C)C[C@@H]1C[C@@H](C/C=C(\C)C(O[C@H]3C[C@H](OC)C(O[C@H]4C[C@H](OC)[C@@H](OCCN=[N+]=[N-])[C@H](C)O4)[C@H](C)O3)[C@@H](C)/C=C/C=C3\CO[C@@H]4[C@H](O)C(C)=CC(C(=O)O1)C34O)O2` (stereo not given in full): the MIC in the assay with Caenorhabditis elegans was 10 ng/mL (≈ 10.6 nM); against Artemia salina, 0.5 ng/mL (≈ 0.531 nM).

`CCC(C)[C@H]1O[C@]2(CC[C@@H]1C)C[C@@H]1C[C@@H](C/C=C(\C)C(O[C@H]3C[C@H](OC)C(O[C@H]4C[C@H](OC)[C@@H](OCC(=O)O)[C@H](C)O4)[C@H](C)O3)[C@@H](C)/C=C/C=C3\CO[C@@H]4[C@H](O)C(C)=CC(C(=O)O1)C34O)O2` (stereo not given in full): the results for the MIC in the assay on Caenorhabditis elegans and against Artemia salina were 0.5 ng/mL (≈ 0.536 nM) and 0.1 ng/mL (≈ 0.107 nM), respectively.

On to `CCC(C)[C@H]1O[C@]2(C=C[C@@H]1C)C[C@@H]1C[C@@H](C/C=C(\C)C(O[C@H]3C[C@H](OC)C(O[C@H]4C[C@H](OC)[C@@H](OCCBr)[C@H](C)O4)[C@H](C)O3)[C@@H](C)/C=C/C=C3\CO[C@@H]4[C@H](O)C(C)=CC(C(=O)O1)C34O)O2` (stereo not given in full), for which the MIC in the assay on Caenorhabditis elegans was 10 ng/mL (≈ 10.2 nM); against Artemia salina it was 2 ng/mL (≈ 2.04 nM).

Regarding `CCOC(=O)CO[C@H]1[C@H](C)O[C@@H](OC2[C@H](C)O[C@@H](OC3/C(C)=C/C[C@@H]4C[C@@H](C[C@]5(CC(=O)[C@H](C)[C@@H](C(C)CC)O5)O4)OC(=O)C4C=C(C)[C@@H](O)[C@H]5OC/C(=C\C=C\[C@@H]3C)C45O)C[C@@H]2OC)C[C@@H]1OC` (stereo not given in full), the MIC in the assay on Caenorhabditis elegans was determined as 10 ng/mL (≈ 10.3 nM); with Artemia salina, 2 ng/mL (≈ 2.05 nM).

Regarding `CCC(C)[C@H]1O[C@]2(CC[C@@H]1C)C[C@@H]1C[C@@H](C/C=C(\C)[C@@H](O[C@H]3C[C@H](OC)[C@@H](OCC(=O)O)[C@H](C)O3)[C@@H](C)/C=C/C=C3\CO[C@@H]4[C@H](O)C(C)=CC(C(=O)O1)C34O)O2` (stereo not given in full), the MIC against Caenorhabditis elegans and in the assay with Artemia salina was 10 ng/mL (≈ 12.7 nM) each time.

Take `CCC(C)[C@H]1O[C@]2(C=C[C@@H]1C)C[C@@H]1C[C@@H](C/C=C(\C)[C@@H](OC3C[C@H](OC)[C@@H](OC4C[C@H](OC)C(OCC(=O)N5CCCCC5)[C@H](C)O4)[C@H](C)O3)[C@@H](C)/C=C/C=C3\CO[C@@H]4[C@H](O)C(C)=C[C@@H](C(=O)O1)[C@]34O)O2` (stereo not given in full): the MIC with Caenorhabditis elegans and in the assay on Artemia salina was 10 ng/mL (≈ 10 nM) each time.

Take `CCC(C)[C@H]1O[C@]2(C=C[C@@H]1C)C[C@@H]1C[C@@H](C/C=C(\C)[C@@H](OC3C[C@H](OC)[C@@H](OC4C[C@H](OC)[C@@H](OCC(=O)O)[C@H](C)O4)[C@H](C)O3)[C@@H](C)/C=C/C=C3\CO[C@@H]4[C@H](O)C(C)=C[C@@H](C(=O)O1)[C@]34O)O2` (stereo not given in full): the MIC was 0.1 ng/mL (≈ 0.107 nM) with Caenorhabditis elegans and 0.02 ng/mL (≈ 0.0215 nM) with Artemia salina.

`CCOC(=O)CO[C@H]1[C@H](C)O[C@@H](O[C@@H]2/C(C)=C/C[C@@H]3C[C@@H](C[C@]4(C=C[C@H](C)[C@@H](C(C)CC)O4)O3)OC(=O)C3C=C(C)[C@@H](O)[C@H]4OC/C(=C\C=C\[C@@H]2C)C34O)C[C@@H]1OC` (stereo not given in full): the values for the MIC in the assay with Caenorhabditis elegans and with Artemia salina were 2 ng/mL (≈ 2.45 nM) and 0.5 ng/mL (≈ 0.613 nM), respectively.

With `CCC(C)[C@H]1O[C@]2(C=C[C@@H]1C)C[C@@H]1C[C@@H](C/C=C(\C)[C@@H](OC3C[C@H](OC)[C@@H](OC4C[C@H](OC)[C@@H](OCC(=O)N5CCOCC5)[C@H](C)O4)[C@H](C)O3)[C@@H](C)/C=C/C=C3\CO[C@@H]4[C@H](O)C(C)=C[C@@H](C(=O)O1)[C@]34O)O2` (stereo not given in full), the MIC in the assay on Caenorhabditis elegans and in the assay with Artemia salina was 0.5 ng/mL (≈ 0.5 nM) in each case.

`CCOC(=O)CO[C@H]1[C@H](C)O[C@@H](OC2[C@H](C)O[C@@H](OC3/C(C)=C/C[C@@H]4C[C@@H](C[C@]5(CC(O)[C@H](C)[C@@H](C(C)CC)O5)O4)OC(=O)C4C=C(C)[C@@H](O)[C@H]5OC/C(=C\C=C\[C@@H]3C)C45O)C[C@@H]2OC)C[C@@H]1OC` (stereo not given in full): the MIC came to 2 ng/mL (≈ 2.05 nM) in the assay with Caenorhabditis elegans and 0.5 ng/mL (≈ 0.512 nM) with Artemia salina.

For the molecule `CCOC(=O)CO[C@H]1[C@H](C)O[C@@H](O[C@@H]2/C(C)=C/C[C@@H]3C[C@@H](C[C@]4(CC[C@H](C)[C@@H](C(C)CC)O4)O3)OC(=O)C3C=C(C)[C@@H](O)[C@H]4OC/C(=C\C=C\[C@@H]2C)C34O)C[C@@H]1OC` (stereo not given in full), the MIC in the assay with Caenorhabditis elegans was 2 ng/mL (≈ 2.45 nM); against Artemia salina, 0.5 ng/mL (≈ 0.612 nM).

As to `CCOC(=O)CO[C@H]1[C@H](C)O[C@@H](OC2[C@H](C)O[C@@H](OC3/C(C)=C/C[C@@H]4C[C@@H](C[C@]5(C/C(=N\OC)[C@H](C)[C@@H](C(C)CC)O5)O4)OC(=O)C4C=C(C)[C@@H](O)[C@H]5OC/C(=C\C=C\[C@@H]3C)C45O)C[C@@H]2OC)C[C@@H]1OC` (stereo not given in full), the MIC in the assay on Caenorhabditis elegans and with Artemia salina was 2 ng/mL (≈ 1.99 nM) in each case.

Regarding `CCC(C)[C@H]1O[C@]2(C=C[C@@H]1C)C[C@@H]1C[C@@H](C/C=C(\C)C(O[C@H]3C[C@H](OC)C(O[C@H]4C[C@H](OC)[C@@H](OCCO)[C@H](C)O4)[C@H](C)O3)[C@@H](C)/C=C/C=C3\CO[C@@H]4[C@H](O)C(C)=CC(C(=O)O1)C34O)O2` (stereo not given in full), the minimal inhibitory concentration (MIC) is 10 ng/mL (≈ 10.9 nM) against Caenorhabditis elegans and 2 ng/mL (≈ 2.18 nM) with Artemia salina.

Regarding `CCC(C)[C@H]1O[C@]2(C=C[C@@H]1C)C[C@@H]1C[C@@H](C/C=C(\C)C(O[C@H]3C[C@H](OC)C(O[C@H]4C[C@H](OC)[C@@H](OCCN5CCCCC5)[C@H](C)O4)[C@H](C)O3)[C@@H](C)/C=C/C=C3\CO[C@@H]4[C@H](O)C(C)=CC(C(=O)O1)C34O)O2` (stereo not given in full), the values for the MIC in the assay on Caenorhabditis elegans and against Artemia salina were 50 ng/mL (≈ 50.8 nM) and 10 ng/mL (≈ 10.2 nM), respectively.

For orientation: MIC means the least concentration at which growth counts as inhibited. High values mean weaker potency, low ones greater potency.
